Assay results: US10265303B2, “Hyperphenylalaninemia and treatments thereof” (BERGEN TEKNOLOGIOVERFØRING AS, priority 2015, dated 2019)
Where a chain is given by its changes, count along the chain named.

Legend:
[1] = target: T1, hPAH (Homo sapiens, UniProt P00439); assay: SPR screening and affinity determination on immobilized hPAH (Biacore T200); format: binding; conditions: SPR, 25° C., compound 0-500 μM in 5% DMSO; affinities said to be overestimated, relative KD reliable; read-out: KD (μM) ± SER
T1 sequence (P00439 1-452): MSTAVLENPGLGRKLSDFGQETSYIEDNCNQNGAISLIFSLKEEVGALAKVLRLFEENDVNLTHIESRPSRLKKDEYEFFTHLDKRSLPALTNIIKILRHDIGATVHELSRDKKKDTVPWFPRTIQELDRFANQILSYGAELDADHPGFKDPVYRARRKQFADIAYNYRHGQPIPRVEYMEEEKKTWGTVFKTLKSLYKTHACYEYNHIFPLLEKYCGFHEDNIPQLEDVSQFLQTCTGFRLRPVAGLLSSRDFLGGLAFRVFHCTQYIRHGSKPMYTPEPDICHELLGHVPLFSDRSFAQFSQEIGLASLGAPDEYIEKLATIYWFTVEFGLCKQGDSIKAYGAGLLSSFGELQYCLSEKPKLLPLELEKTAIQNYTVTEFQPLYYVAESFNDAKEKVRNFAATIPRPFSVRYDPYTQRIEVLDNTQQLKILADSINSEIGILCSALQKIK
Experimental: For detailed determination of binding affinity of Compound 53 and derivatives (FIG. 4) SPR was performed on a Biacore T200 (GE Healthcare Life Sciences) at a temperature of 25° C. A hPAH solution at 0.08 μg/μl in a final volume of 200 μl in acetate buffer pH 5.0 was immobilized onto series S sensor chip CM5 by the standard amine coupling procedure at a flow rate of 30 μl/min and PBS-P+ buffer as running buffer aiming for RU 20000. After the coupling reaction the surface of the sensor chip was washed to eliminate unbound species with HBS buffer (0.01 M NaHepes pH 7.4, 0.15 M NaCI) at steady flow of 20 μl/min for 1 hour until the baseline drift was around 0.05 RU/s; note that an early injection of 40 μl dithiothreitol (DTT) 10 mM in HBS allowed for this reduced washing time.
For the screening, compounds were assayed at a concentration of 200 μM, with 5% DMSO in duplicates, including negative controls with 5% DMSO, positive controls, with 200 μM BH2 and solvent correction was also performed. For KD calculations, a compound concentration 0-500 μM (in 5% DMSO) were applied at otherwise analogous experimental design and analyses were performed using Biacore T200 Evaluation Software, version 2.0 (GE Healthcare Life Sciences).
All the responses from the compounds of the screening were subjected to blank subtraction (negative control 5% DMSO), molecular weight adjustment and solvent correction to account for differences in bulk response. Next a cut-off value for the screening was selected based on the response of the positive control of our experiments: RU BH2+3*SD (2.88+3*1.79=8.27). In this manner, from the 11 derivatives of Compound 53 tested (see FIG. 4) we weeded out those compounds with a lower response than 8.27, namely #53.2, #53.9 and #53.11.
In addition and for the rest of the compounds which continued our workflow, binding affinities were determined and the results are shown in the following table. The selected conditions to measure affinity are selected for high throughput measurements, but the affinities are overestimated though the relative KD for the different compounds are reliable.

[2] = target: T2, R252W-PAH (Homo sapiens, UniProt P00439, R252W); assay: PAH protein level and activity in HEK293 EBNA cells transiently expressing PKU mutant R252W; format: cell-based
T2 construct: expressed in transfected cells; host or cells: HEK293 EBNA, transient, pcDNA3-PAH
T2 sequence (P00439 1-452 R252W): T1 sequence (P00439 1-452) with R252W
Experimental: A similar assay was used to measure PAH activity in cells lysates using 1 mM L-Phe and 200 μM BH4 with 10 min reactions and about 20-90 μg of total protein. Free amino acids and contaminants of low molecular weight were previously removed from the extracts using Zebra Desalt Spin columns (Pierce Biotechnology).
For transient expression of WT and mutant PAH, HEK293 EBNA (Epstein-Barr virus) cells, with low endogenous PAH expression, were grown as above. Cells were grown for 19 h, when they were transfected transiently transfected with […] of pcDNA3-PAH vector (WT or mutant PAH constructs R261Q, R252W, I65T and R68S) using the Lipofectamine system (Life Technologies™) as described by the manufacturer. Compound 53, with and without BH2 (200 μM) was added after 5 h of transfection at 200 μM concentration in 1% DMSO, and further incubated for 24 h, at which time the cells were harvested and stored at −80° C. In all cases a parallel negative control with only 1% DMSO was included. Cell lysates were prepared as indicated above.
Western blot analyses were performed on either cell extracts from permanently expressing or transiently transfected HEK293 cell lysates after SDS-PAGE (10% acrylamide) with 5-10 μg total protein in each lane. […] Neomycin phosphotransferase II was used as a marker of the plasmid transfection efficiency, and GAPDH was used as loading controls. […]

[3] = target: tyrosine hydroxylase (TH) (Homo sapiens, UniProt P07101); conditions: 68.9 μM, respect to 2% DMSO controls
[4] = target: tryptophan hydroxylase 2 (TPH2) (Homo sapiens, UniProt Q8IWU9); conditions: 68.9 μM, respect to 2% DMSO controls
Sequence of tryptophan hydroxylase 2 (TPH2) (Q8IWU9 whole entry, species assumed): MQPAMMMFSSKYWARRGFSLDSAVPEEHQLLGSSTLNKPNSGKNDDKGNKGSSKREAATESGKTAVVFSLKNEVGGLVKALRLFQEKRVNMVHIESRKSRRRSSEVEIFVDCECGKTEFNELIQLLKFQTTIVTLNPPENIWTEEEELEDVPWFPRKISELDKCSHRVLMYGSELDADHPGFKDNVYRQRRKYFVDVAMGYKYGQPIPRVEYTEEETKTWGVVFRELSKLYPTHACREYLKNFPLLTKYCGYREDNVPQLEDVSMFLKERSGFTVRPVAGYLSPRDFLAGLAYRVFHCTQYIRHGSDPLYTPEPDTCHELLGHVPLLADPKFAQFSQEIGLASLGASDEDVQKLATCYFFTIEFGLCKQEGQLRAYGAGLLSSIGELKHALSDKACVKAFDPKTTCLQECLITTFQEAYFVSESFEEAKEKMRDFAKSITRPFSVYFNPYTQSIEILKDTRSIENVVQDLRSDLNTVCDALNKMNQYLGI

Sequence of tyrosine hydroxylase (TH) (P07101 whole entry): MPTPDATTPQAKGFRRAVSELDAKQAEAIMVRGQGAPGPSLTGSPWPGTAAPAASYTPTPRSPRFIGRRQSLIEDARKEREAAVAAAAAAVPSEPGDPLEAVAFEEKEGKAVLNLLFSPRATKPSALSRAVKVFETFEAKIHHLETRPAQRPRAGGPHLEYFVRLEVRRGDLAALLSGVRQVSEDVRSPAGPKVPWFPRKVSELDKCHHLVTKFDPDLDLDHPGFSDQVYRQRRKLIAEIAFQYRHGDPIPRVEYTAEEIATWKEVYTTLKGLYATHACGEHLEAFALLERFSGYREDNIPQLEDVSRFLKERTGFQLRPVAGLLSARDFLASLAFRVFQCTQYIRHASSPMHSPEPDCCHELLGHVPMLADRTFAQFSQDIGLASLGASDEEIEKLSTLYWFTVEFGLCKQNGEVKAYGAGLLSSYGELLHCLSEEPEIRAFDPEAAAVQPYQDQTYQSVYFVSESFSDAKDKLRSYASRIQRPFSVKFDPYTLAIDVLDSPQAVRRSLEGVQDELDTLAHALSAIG

Kd [1]: 58.5 ± 35.8 µM
effect on mutant R252W (protein, activity) ([2]; 200 μM alone, 24 h, 1% DMSO): neither the compound or BH4 affected
effect on TH activity [3]: did not have large effect
effect on TPH2 activity [4]: did not have large effect
SMILES: COc1cc(Cc2cnc(N)nc2N)cc(OC)c1OC [c53, trimethoprim]
protein content, mutant R252W, compound and cofactor analogue together ([2]; Compound 53 200 μM plus BH2 200 μM, 24 h (FIG. 2D)): a little stimulation of the protein content
